How the values were obtained:
human 5HT1Dα receptor = target: T1, human 5HT1Dα receptor (Homo sapiens, UniProt P28221); assay: Binding to human 5HT1Dα receptor ([3H]serotonin); settings: cloned human receptor
T1 construct: expressed in transfected cells

[1] = tested on: food intake in food-deprived rats; assay: Food intake in food-deprived rats (24 h food deprivation); format: in vivo, rat; set-up: concentration or dose not given beside the values; settings: rats after 24 h food deprivation; two hours after administration of test compound
human 5HT1Dβ receptor = target: T2, human 5HT1Dβ receptor (Homo sapiens, UniProt P28222); assay: Binding to human 5HT1Dβ receptor ([3H]serotonin); settings: cloned human receptor
T2 construct: expressed in transfected cells

[2] = target: T3, human dopamine D3 receptor (Homo sapiens, UniProt P35462); assay: Binding to human dopamine D3 receptor ([3H]spiperone); settings: cloned human receptor
T3 construct: expressed in transfected cells; host or cells: COS-7 cells, transient

human α1d receptor = target: T4, human α1d receptor (Homo sapiens, UniProt P25100); assay: Binding to cloned human α1d adrenergic receptor
T4 construct: expressed in transfected cells

human Y2 receptor = target: T5, human Y2 receptor (Homo sapiens, UniProt P49146); assay: Radioligand binding to cloned human Y2 receptor (125I-PYY); settings: cloned human Y2, stably transfected cells, read-out: Binding Affinity (K1 (nM) vs. 125I-PYY) Human Receptor Y2
T5 construct: expressed in transfected cells
T5 sequence (P49146 1-381): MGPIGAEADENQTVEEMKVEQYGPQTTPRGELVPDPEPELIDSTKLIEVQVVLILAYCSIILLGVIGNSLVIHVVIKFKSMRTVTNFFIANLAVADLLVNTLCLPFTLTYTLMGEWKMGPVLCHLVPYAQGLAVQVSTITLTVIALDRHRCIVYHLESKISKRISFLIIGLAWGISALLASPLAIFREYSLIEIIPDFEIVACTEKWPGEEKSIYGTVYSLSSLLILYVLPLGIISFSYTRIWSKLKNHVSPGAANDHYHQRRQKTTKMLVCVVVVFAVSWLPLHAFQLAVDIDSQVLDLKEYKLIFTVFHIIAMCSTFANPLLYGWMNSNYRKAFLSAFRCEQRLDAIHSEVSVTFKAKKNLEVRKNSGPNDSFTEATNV
Protocol: Human Y1, human Y2, and rat Y5 receptors were co-transfected with a G-418 resistant gene into the human embryonic kidney 293 cell line by a calcium phosphate transfection method (Cullen, 1987). Stably transfected cells were selected with G-418. Human Y4 and human Y5 receptors were similarly transfected into mouse fibroblast LM(tk−) cells and NIH-3T3 cells.
Binding of the compounds of the present invention to the human Y1, Y2, Y4 and Y5 receptors was evaluated using stably transfected 293 or LM(tk−) cells as described above. Stably transfected cell lines which may be used for binding assays include, for example, for the human Y1 receptor, 293-hY1-5 (deposited Jun. 4, 1996, under ATCC Accession No. CRL-12121), for the human Y2 receptor, 293-hY2-10 (deposited Jan. 27, 1994, under ATCC Accession No. CRL-11537), for the human Y4 receptor, L-hY4-3 (deposited Jan. 11, 1995, under ATCC Accession No. CRL-11779), and for the human Y5 receptor, L-hY5-7 (deposited Nov. 15, 1995, under ATCC Accession No. CRL-11995).
Membranes were harvested from COS-7 cells 48 hours after transient transfection. Adherent cells were washed twice in ice-cold phosphate buffered saline (138 mM NaCl, 8.1 mM Na2HPO4, 2.5 mM KCl, […], 0.9 mM CaCl2, 0.5 mM MgCl2, pH 7.4) and lysed by sonication in ice-cold sonication buffer (20 mM Tris-HCl, 5 mM EDTA, pH 7.7). Large particles and debris were cleared by low speed centrifugation (200 x g, 5 min, 4° C.). Membranes were collected from the supernatant fraction by centrifugation (32,000 x g, 18 min, […] ), washed with ice-cold hypotonic buffer, and collected again by centrifugation (32,000 x g, 18 min, 4° C.). […] Protein concentration was measured by the Bradford method (Bradford, 1976) using Bio-Rad Reagent, with bovine serum albumin as a standard. Membranes were held on ice for up to one hour and used fresh, or flash-frozen and stored in liquid nitrogen.
Membranes were prepared similarly from 293, LM(tk−), and NIH-3T3 cells. To prepare membranes from baculovirus infected cells, 2×10^7 Sf21 cells were grown in 150 mm tissue culture dishes and infected with a high-titer stock of hY5BB3. Cells were incubated for 2-4 days at 27° C., no CO2 be fore harvesting and membrane preparation as described above.

human α1a receptor = target: T6, human α1a receptor (Homo sapiens, UniProt P35348); assay: Binding to cloned human α1a adrenergic receptor
T6 construct: expressed in transfected cells

human 5HT7 receptor = target: T7, human 5HT7 receptor (Homo sapiens, UniProt P34969); assay: Binding to human 5HT7 receptor; settings: cloned human receptor
T7 construct: expressed in transfected cells

human α1b receptor = target: T8, human α1b receptor (Homo sapiens, UniProt P35368); assay: Binding to cloned human α1b adrenergic receptor
T8 construct: expressed in transfected cells

human 5HT1F receptor = target: T9, human 5HT1F receptor (Homo sapiens, UniProt P30939); assay: Binding to human 5HT1F receptor ([3H]serotonin); settings: cloned human receptor
T9 construct: expressed in transfected cells
T9 sequence (P30939 1-366): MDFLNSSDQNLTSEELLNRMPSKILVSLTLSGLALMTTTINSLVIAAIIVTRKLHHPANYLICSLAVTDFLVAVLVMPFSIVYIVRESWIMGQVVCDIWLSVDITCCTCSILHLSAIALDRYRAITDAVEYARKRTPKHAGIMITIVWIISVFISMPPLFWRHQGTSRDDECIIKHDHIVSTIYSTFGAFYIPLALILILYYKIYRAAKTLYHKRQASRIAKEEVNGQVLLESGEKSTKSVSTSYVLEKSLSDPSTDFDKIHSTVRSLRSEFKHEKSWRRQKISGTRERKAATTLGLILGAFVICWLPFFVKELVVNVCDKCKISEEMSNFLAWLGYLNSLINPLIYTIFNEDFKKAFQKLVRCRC
Protocol: 5HT1Dα, 5HT1Dβ, 5HT1E, 5HT1F Receptors: LM(tk−) clonal cell lines stably transfected with the genes encoding each of these 5HT receptor subtypes were prepared as described above. The cell line for the 5HT1Dα, receptor, designated as Ltk−8-30-84, was deposited on Apr. 17, 1990, and accorded ATCC Accession No. CRL 10421. The cell for the 5HT1Dβ receptor, designated as Ltk−11, was deposited on Apr. 17, 1990, and accorded ATCC Accession No. CRL 10422. The cell line for the 5HT1E receptor, designated 5 HT1E-7, was deposited on Nov. 6, 1991, and accorded ATCC Accession No. CRL 10913. The cell line for the 5HT1F receptor, designated L-5-HT1F, was deposited on Dec. 27, 1991, and accorded ATCC Accession No. ATCC 10957. Membrane preparations comprising these receptors were prepared as described below, and suspended in 50 mM Tris-HCl buffer (pH 7.4 at 37° C.) containing 10 mM MgCl2, 0.2 mM EDTA, 10 μM pargyline, and 0.1% ascorbate. The binding of compounds was determined in competition binding assays by incubation for 30 minutes at 37° C. in the presence of 5 nM [^3H) serotonin. Nonspecific binding was determined in the presence of 10 μM serotonin. The bound radioligand was separated by filtration through GF/B filters using a cell harvester.

T2 sequence (P28222 whole entry): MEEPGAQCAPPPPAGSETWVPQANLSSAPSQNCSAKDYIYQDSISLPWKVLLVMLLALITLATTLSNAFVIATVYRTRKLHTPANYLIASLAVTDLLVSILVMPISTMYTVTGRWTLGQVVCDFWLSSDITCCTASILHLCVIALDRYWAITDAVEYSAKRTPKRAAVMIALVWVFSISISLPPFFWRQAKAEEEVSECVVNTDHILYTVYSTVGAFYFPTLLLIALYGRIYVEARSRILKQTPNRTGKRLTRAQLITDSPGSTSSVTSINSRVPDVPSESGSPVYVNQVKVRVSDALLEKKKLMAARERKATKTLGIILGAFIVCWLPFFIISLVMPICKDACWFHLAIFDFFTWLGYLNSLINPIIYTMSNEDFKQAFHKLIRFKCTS
T6 sequence (P35348 whole entry): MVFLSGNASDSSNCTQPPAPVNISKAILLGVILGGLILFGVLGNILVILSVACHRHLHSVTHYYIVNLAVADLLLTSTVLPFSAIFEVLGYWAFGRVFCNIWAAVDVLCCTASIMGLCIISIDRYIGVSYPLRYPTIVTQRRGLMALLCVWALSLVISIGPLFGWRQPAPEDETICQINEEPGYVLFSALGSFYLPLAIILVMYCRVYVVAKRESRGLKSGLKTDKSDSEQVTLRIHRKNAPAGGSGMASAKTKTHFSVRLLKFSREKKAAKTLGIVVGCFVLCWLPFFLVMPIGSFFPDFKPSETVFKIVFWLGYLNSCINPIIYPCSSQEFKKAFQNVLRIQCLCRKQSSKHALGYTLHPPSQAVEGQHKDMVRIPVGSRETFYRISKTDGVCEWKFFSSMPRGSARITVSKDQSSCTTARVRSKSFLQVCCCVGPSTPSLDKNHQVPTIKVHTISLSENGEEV
T4 sequence (P25100 whole entry): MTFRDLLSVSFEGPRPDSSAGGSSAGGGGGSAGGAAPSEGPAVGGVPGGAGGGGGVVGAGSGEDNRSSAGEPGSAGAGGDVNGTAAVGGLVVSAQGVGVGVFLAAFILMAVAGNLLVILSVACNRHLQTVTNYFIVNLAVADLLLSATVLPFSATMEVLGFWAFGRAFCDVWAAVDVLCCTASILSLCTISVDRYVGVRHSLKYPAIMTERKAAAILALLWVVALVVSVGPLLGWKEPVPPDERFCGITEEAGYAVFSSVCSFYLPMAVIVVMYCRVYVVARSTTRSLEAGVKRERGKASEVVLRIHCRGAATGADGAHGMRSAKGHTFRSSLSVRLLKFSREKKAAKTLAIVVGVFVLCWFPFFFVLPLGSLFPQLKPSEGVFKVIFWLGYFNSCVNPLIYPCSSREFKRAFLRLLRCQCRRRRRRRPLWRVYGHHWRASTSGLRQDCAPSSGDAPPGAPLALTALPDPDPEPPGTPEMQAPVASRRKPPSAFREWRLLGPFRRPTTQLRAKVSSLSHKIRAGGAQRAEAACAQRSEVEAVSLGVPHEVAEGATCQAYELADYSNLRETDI
T3 sequence (P35462 whole entry): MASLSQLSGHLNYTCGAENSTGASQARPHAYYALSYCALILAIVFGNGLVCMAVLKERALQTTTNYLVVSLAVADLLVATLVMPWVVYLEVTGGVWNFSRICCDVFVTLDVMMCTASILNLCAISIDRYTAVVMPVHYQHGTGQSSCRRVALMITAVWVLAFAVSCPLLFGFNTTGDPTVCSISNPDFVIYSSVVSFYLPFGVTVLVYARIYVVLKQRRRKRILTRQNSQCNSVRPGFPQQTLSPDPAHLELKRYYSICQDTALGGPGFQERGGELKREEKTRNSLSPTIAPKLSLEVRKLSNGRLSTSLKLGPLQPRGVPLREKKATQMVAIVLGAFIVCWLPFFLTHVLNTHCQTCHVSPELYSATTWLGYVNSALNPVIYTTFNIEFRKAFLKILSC
T1 sequence (P28221 whole entry): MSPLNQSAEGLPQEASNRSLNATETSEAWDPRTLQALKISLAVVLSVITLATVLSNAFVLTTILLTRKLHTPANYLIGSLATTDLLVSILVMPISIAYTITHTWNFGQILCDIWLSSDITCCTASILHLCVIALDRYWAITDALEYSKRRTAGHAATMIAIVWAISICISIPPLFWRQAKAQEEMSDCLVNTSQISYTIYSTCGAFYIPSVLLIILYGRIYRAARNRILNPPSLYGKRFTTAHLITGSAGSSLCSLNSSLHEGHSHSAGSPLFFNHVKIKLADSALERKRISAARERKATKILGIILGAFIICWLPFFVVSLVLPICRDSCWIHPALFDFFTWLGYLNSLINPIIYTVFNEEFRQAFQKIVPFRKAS
T8 sequence (P35368 whole entry): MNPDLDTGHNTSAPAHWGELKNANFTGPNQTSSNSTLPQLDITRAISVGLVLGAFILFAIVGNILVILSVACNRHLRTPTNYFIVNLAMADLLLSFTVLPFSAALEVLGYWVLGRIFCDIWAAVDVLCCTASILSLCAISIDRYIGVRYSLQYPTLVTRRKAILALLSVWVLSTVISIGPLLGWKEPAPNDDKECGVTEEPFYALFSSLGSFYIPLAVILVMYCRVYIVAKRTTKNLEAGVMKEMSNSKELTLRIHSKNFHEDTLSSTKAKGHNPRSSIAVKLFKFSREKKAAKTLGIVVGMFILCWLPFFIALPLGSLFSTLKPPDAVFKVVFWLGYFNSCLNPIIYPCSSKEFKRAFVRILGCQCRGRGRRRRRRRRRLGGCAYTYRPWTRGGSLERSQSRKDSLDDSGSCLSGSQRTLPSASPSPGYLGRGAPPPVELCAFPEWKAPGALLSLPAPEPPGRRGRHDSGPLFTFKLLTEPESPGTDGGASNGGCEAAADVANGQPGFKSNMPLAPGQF
T7 sequence (P34969 whole entry): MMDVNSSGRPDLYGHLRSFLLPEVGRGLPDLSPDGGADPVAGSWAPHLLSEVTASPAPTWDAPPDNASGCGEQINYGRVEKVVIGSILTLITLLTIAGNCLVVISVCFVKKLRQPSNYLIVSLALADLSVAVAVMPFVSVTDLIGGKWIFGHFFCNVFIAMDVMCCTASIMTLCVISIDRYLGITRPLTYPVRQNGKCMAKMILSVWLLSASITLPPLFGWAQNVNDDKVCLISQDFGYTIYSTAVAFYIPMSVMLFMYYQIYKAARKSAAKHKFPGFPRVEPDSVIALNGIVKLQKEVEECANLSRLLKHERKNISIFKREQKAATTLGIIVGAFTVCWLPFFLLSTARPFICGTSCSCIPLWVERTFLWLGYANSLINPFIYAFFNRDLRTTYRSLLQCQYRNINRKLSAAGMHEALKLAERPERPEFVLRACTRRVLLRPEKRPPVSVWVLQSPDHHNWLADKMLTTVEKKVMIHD

Receptor (pKi) 5HT1Dα (human 5HT1Dα receptor) | Receptor (pKi) 5HT1Dβ (human 5HT1Dβ receptor) | Receptor (pKi) D3 [2] | Receptor (pKi) α1d (human α1d receptor) | Ki (human Y2 receptor) | Receptor (pKi) α1a (human α1a receptor) | Receptor (pKi) 5HT7 (human 5HT7 receptor) | Receptor (pKi) α1b (human α1b receptor) | Receptor (pKi) 5HT1F (human 5HT1F receptor) | SMILES | Two-hour food intake, percentage of intake compared to control rats, Mean (%) [1]
6.04 | ≤ 5.30 | 6.69 | 6.90 | 955 nM | 7.47 | 6.42 | 7.35 | ≤ 5.30 | Cl.O=S(=O)(NCC1CCC(CNCC2CCc3ccccc3C2)CC1)c1cccc2ccccc12 (centres unmarked) [Example 32] | 36%
5.94 | 5.37 | 6.35 | 7.01 | 7760 nM | 7.72 | 6.37 | 7.22 | ≤ 5.30 | Cl.O=[N+]([O-])c1ccccc1S(=O)(=O)NCC1CCC(CNCC2CCc3ccccc3C2)CC1 (centres unmarked) [Example 36] | 35%

— patent US6734182B2, “Aryl sulfonamides and sulfamide derivatives and uses thereof” (Synaptic Pharmaceutical Corporation, priority 1995, dated 2004)
